Reference: patent US4570013A, “Biphenylylalkanoic acid derivatives, methods of preparation and pharmaceutical compositions therefrom” (Dr. L. Zambeletti S.p.A., priority 1983, dated 1986)
Read-outs that look alike come from different tables or passages of the source.

Assays:
[1] = tested on: Hyperthermia caused by brewer's yeast in rats; assay: brewer's yeast hyperthermia (method of C. Winter), antipyretic activity; format: in vivo; details: for ED50: Rattus norvegicus, po, rats, os, read-out: Antipyretic activity (temperature increase by brewer's yeast, in rats) ED50
Text: The antipyretic activity has been studied according to the method of C. Winter, Toxicol. and Appl. Pharmacol., 5, 247 (1963), in rats, by determining the ability of the substance to reduce the increase of body temperature caused by the subcutaneous administration of brewer's yeast.

[2] = tested on: writhings caused by 2-phenylparabenzoquinone in mice; assay: writhing test (method of Siegmund), 2-phenylparabenzoquinone, analgesic activity; format: in vivo, Swiss mice; details: for ED50: Mus musculus, po; for Contorsions % (change vs controls) / No. Contorsions: orally at ED50: biphenylylacetic acid 12, Ia 32 mg/kg
Text: The analgesic activity has been studied according to the method described by Siegmund (E. Siegmund et al, Proc. Soc. Exptl. Biol. Med., 95, 729 (1957)), according to which the algogenic stimulus consists of the intraperitoneal injection of 2-phenylparabenzoquinone and the algesia manifests itself in repeated abdominal contractions with an extension of the rear limbs and contorsions of the body ("writhing test").

[3] = tested on: oedema induced in the rats' paw by intradermic injection of carrageenin; assay: carrageenin-induced paw oedema (method of Winter), antiinflammatory activity; format: in vivo; details: Rattus norvegicus, po, os, read-out: Antiinflammatory activity (oedema caused by carrageenin in rats) ED50
[4] = in vivo; details: rat, po

SMILES: O=C(Cc1ccc(-c2ccccc2)cc1)Nc1ccccn1 [Diphenpyramide, N-2-pyridinyl-(1,1'-biphenyl)-4-acetamide]
- ED50 [1]: 22.5 mg/kg
- ED50 ([2]; read-out: Analgesic activity (against pain caused by 2-phenyl-p-benzo-quinone in mice) ED50): 97 mg/kg
- ED50 [3]: 19.9 mg/kg
- TD50 [4]: 76 mg/kg

SMILES: O=C(O)Cc1ccc(-c2ccccc2)cc1 [reference compound]
- Temperature change Δt after administration of the substance ([1]; 3 mg/kg os, 1 h): -0.48 °C
- Temperature after administration of the substance, t ([1]; 3 mg/kg os, 2 h): 37.81±0.05 °C
- Temperature change Δt after administration of the substance ([1]; 3 mg/kg os, 2 h): -0.65 °C
- P/S, ratio of protected animals with respect to total screened animals ([1]; 3 mg/kg os, 3 h): 2/10
- Temperature after administration of the substance, t ([1]; 3 mg/kg os, 3 h): 37.69±0.08 °C
- Temperature change Δt after administration of the substance ([1]; 3 mg/kg os, 3 h): -0.70 °C
- Temperature after administration of the substance, t ([1]; 3 mg/kg os, 4 h): 37.89±0.08 °C
- Temperature change Δt after administration of the substance ([1]; 3 mg/kg os, 4 h): -0.41 °C
- Temperature after administration of the substance, t ([1]; 3 mg/kg os, 5 h): 38.12±0.13 °C
- Temperature change Δt after administration of the substance ([1]; 3 mg/kg os, 5 h): -0.14 °C
- Temperature after administration of the substance, t ([1]; 3 mg/kg os, 6 h): 38.19±0.11 °C
- Temperature change Δt after administration of the substance ([1]; 3 mg/kg os, 6 h): -0.05 °C
- Temperature after administration of the substance, t ([1]; 6 mg/kg os, 1 h): 37.80±0.09 °C
- Temperature change Δt after administration of the substance ([1]; 6 mg/kg os, 1 h): -0.84 °C
- Temperature after administration of the substance, t ([1]; 6 mg/kg os, 2 h): 37.46±0.09 °C
- Temperature change Δt after administration of the substance ([1]; 6 mg/kg os, 2 h): -1.00 °C
- P/S, ratio of protected animals with respect to total screened animals ([1]; 6 mg/kg os, 3 h): 5/10
- Temperature after administration of the substance, t ([1]; 6 mg/kg os, 3 h): 37.28±0.07 °C
- Temperature change Δt after administration of the substance ([1]; 6 mg/kg os, 3 h): -1.11 °C
- Temperature after administration of the substance, t ([1]; 6 mg/kg os, 4 h): 37.40±0.09 °C
- Temperature change Δt after administration of the substance ([1]; 6 mg/kg os, 4 h): -0.90 °C
- Temperature after administration of the substance, t ([1]; 6 mg/kg os, 5 h): 37.65±0.10 °C
- Temperature change Δt after administration of the substance ([1]; 6 mg/kg os, 5 h): -0.63 °C
- Temperature after administration of the substance, t ([1]; 6 mg/kg os, 6 h): 37.81±0.12 °C
- Temperature change Δt after administration of the substance ([1]; 6 mg/kg os, 6 h): -0.37 °C
- Temperature after administration of the substance, t ([1]; 12 mg/kg os, 1 h): 37.71±0.08 °C
- Temperature change Δt after administration of the substance ([1]; 12 mg/kg os, 1 h): -0.93 °C
- Temperature after administration of the substance, t ([1]; 12 mg/kg os, 2 h): 37.33±0.06 °C
- Temperature change Δt after administration of the substance ([1]; 12 mg/kg os, 2 h): -1.13 °C
- P/S, ratio of protected animals with respect to total screened animals ([1]; 12 mg/kg os, 3 h): 8/10
- Temperature after administration of the substance, t ([1]; 12 mg/kg os, 3 h): 37.09±0.07 °C
- Temperature change Δt after administration of the substance ([1]; 12 mg/kg os, 3 h): -1.30 °C
- Temperature after administration of the substance, t ([1]; 12 mg/kg os, 4 h): 37.18±0.07 °C
- Temperature change Δt after administration of the substance ([1]; 12 mg/kg os, 4 h): -1.12 °C
- Temperature after administration of the substance, t ([1]; 12 mg/kg os, 5 h): 37.43±0.08 °C
- Temperature change Δt after administration of the substance ([1]; 12 mg/kg os, 5 h): -0.93 °C
- Temperature after administration of the substance, t ([1]; 12 mg/kg os, 6 h): 37.58 °C
- Temperature change Δt after administration of the substance ([1]; 12 mg/kg os, 6 h): -0.66 °C
- ED50 [1]: 6 mg/kg
- Contorsions % (change vs controls) ([2]; 5 minutes): -27%
- No. Contorsions ([2]; 5 minutes): 33.4 ± 3.0
- Contorsions % (change vs controls) ([2]; 15 minutes): -41%
- No. Contorsions ([2]; 15 minutes): 31.0 ± 4.7
- Contorsions % (change vs controls) ([2]; 30 minutes): -57%
- No. Contorsions ([2]; 30 minutes): 21.3 ± 2.6
- Contorsions % (change vs controls) ([2]; 1 hour): -49%
- No. Contorsions ([2]; 1 hour): 25.6 ± 2.9
- Contorsions % (change vs controls) ([2]; 2 hours): -42%
- No. Contorsions ([2]; 2 hours): 25.1 ± 2.8
- Contorsions % (change vs controls) ([2]; 3 hours): -47%
- No. Contorsions ([2]; 3 hours): 26.0 ± 4.0
- Contorsions % (change vs controls) ([2]; 4 hours): -28%
- No. Contorsions ([2]; 4 hours): 34.9 ± 3.6
- Contorsions % (change vs controls) ([2]; 5 hours): -1%
- No. Contorsions ([2]; 5 hours): 45.0 ± 2.3
- ED50 ([2]; mice, orally, read-out: ED50, analgesic activity (writhing test)): 12 mg/kg
- ED50 [3]: 10.9 mg/kg
- TD50 [4]: 16.5 mg/kg
